Assay results reported in patent US4698327A, “Novel glycopeptide derivatives” (priority 1986, dated 1987).
≈ marks a conversion by molar mass, not a printed value.

Legend:
[1] = system: Staphylococcus aureus V41; test: MIC, standard agar-dilution assay; type: cell-based
[2] = system: Staphylococcus aureus X400; test: MIC, standard agar-dilution assay; type: cell-based
[3] = system: Staphylococcus aureus S13E; type: cell-based; details: agar dilution
[4] = system: Staphylococcus epidermidis EPI1; type: cell-based; details: agar dilution
[5] = system: Staphylococcus epidermidis 222; test: MIC, standard agar-dilution assay; type: cell-based
[6] = system: Streptococcus pyogenes C203; test: MIC, standard agar-dilution assay; type: cell-based
[7] = system: Streptococcus pneumoniae Park 1; type: cell-based; details: agar dilution
[8] = system: Streptococcus faecium ATCC 9790; test: MIC, standard agar-dilution assay; type: cell-based
[9] = system: Streptococcus sp. group D 2041; test: MIC, standard agar-dilution assay; type: cell-based
[10] = system: Haemophilus influenzae C.L.; test: MIC, standard agar-dilution assay; type: cell-based
[11] = system: Haemophilus influenzae 76; test: MIC, standard agar-dilution assay; type: cell-based
Escherichia coli N10 = test: MIC, standard agar-dilution assay; type: cell-based
Escherichia coli EC14 = test: MIC, standard agar-dilution assay; type: cell-based
Escherichia coli TEM = test: MIC, standard agar-dilution assay; type: cell-based
[12] = system: Klebsiella pneumoniae X26; test: MIC, standard agar-dilution assay; type: cell-based
[13] = system: Klebsiella pneumoniae X68; test: MIC, standard agar-dilution assay; type: cell-based
[14] = system: Klebsiella pneumoniae KAE; test: MIC, standard agar-dilution assay; type: cell-based
[15] = system: Staphylococcus aureus NRRL B313; details: agar dilution

SMILES | MIC [1] [µg/mL] | MIC [2] [µg/mL] | MIC [3] [µg/mL] | MIC [4] [µg/mL] | MIC [5] [µg/mL] | MIC [6] [µg/mL] | MIC [7] [µg/mL] | MIC [8] [µg/mL] | MIC [9] [µg/mL] | MIC [10] [µg/mL] | MIC [11] [µg/mL] | MIC (Escherichia coli N10) [µg/mL] | MIC (Escherichia coli EC14) [µg/mL] | MIC (Escherichia coli TEM) [µg/mL] | MIC [12] [µg/mL] | MIC [13] [µg/mL] | MIC [14] [µg/mL] | MIC [15] [µg/mL]
CCCCCCCCCCNC1(C)CC(OC2C(Oc3c4cc5cc3Oc3ccc(cc3Cl)C(O)C(NC(=O)C(CC(C)C)N(C)CCCCCCCCCC)C(=O)NC(CC(N)=O)C(=O)NC5C(=O)NC3C(=O)NC(C(=O)NC(C(=O)O)c5cc(O)cc(O)c5-c5cc3ccc5O)C(O)c3ccc(c(Cl)c3)O4)OC(CO)C(O)C2O)OC(C)C1O (stereo not drawn) [Compound 4, N^van, N^leu --di(n-decyl)vancomycin] | 4 (≈ 2.31 µM) | 4 (≈ 2.31 µM) | 4 (≈ 2.31 µM) | 16 (≈ 9.25 µM) | 4 (≈ 2.31 µM) | 2 (≈ 1.16 µM) | 4 (≈ 2.31 µM) | 4 (≈ 2.31 µM) | 4 (≈ 2.31 µM) | > 128 | > 128 | > 128 | > 128 | > 128 | > 128 | > 128 | > 128 | 2 (≈ 1.16 µM)
CCCCCCCCCNC1(C)CC(OC2C(Oc3c4cc5cc3Oc3ccc(cc3Cl)C(O)C(NC(=O)C(CC(C)C)N(C)CCCCCCCCC)C(=O)NC(CC(N)=O)C(=O)NC5C(=O)NC3C(=O)NC(C(=O)NC(C(=O)O)c5cc(O)cc(O)c5-c5cc3ccc5O)C(O)c3ccc(c(Cl)c3)O4)OC(CO)C(O)C2O)OC(C)C1O (stereo not drawn) [Compound 6, N^van, N^leu --di(n-nonyl)vancomycin] | 1 (≈ 0.588 µM) | 1 (≈ 0.588 µM) | 2 (≈ 1.18 µM) | 4 (≈ 2.35 µM) | 2 (≈ 1.18 µM) | 1 (≈ 0.588 µM) | 2 (≈ 1.18 µM) | 1 (≈ 0.588 µM) | 2 (≈ 1.18 µM) | > 128 | > 128 | > 128 | > 128 | > 128 | > 128 | > 128 | > 128 | 1 (≈ 0.588 µM)
CCCCCCCCNC1(C)CC(OC2C(Oc3c4cc5cc3Oc3ccc(cc3Cl)C(O)C(NC(=O)C(CC(C)C)N(C)CCCCCCCC)C(=O)NC(CC(N)=O)C(=O)NC5C(=O)NC3C(=O)NC(C(=O)NC(C(=O)O)c5cc(O)cc(O)c5-c5cc3ccc5O)C(O)c3ccc(c(Cl)c3)O4)OC(CO)C(O)C2O)OC(C)C1O (stereo not drawn) [Compound 9, N^van, N^leu --di(n-octyl)vancomycin] | 1 (≈ 0.597 µM) | 1 (≈ 0.597 µM) | 1 (≈ 0.597 µM) | 4 (≈ 2.39 µM) | 2 (≈ 1.19 µM) | 0.5 (≈ 0.299 µM) | 1 (≈ 0.597 µM) | 1 (≈ 0.597 µM) | 2 (≈ 1.19 µM) | > 128 | > 128 | > 128 | > 128 | > 128 | > 128 | > 128 | > 128 | 1 (≈ 0.597 µM)
CCCCCCCNC1(C)CC(OC2C(Oc3c4cc5cc3Oc3ccc(cc3Cl)C(O)C3NC(=O)C(NC(=O)C5NC(=O)C(CC(N)=O)NC(=O)C(NC(=O)C(CC(C)C)NC)C(O)c5ccc(c(Cl)c5)O4)c4ccc(O)c(c4)-c4c(O)cc(O)cc4C(C(=O)O)NC3=O)OC(CO)C(O)C2O)OC(C)C1O (stereo not drawn) [Compound 10, N^van --(n-heptyl)vancomycin] | 0.5 (≈ 0.323 µM) | 0.5 (≈ 0.323 µM) | 0.5 (≈ 0.323 µM) | 2 (≈ 1.29 µM) | 1 (≈ 0.646 µM) | 0.5 (≈ 0.323 µM) | 0.125 (≈ 0.0808 µM) | 0.5 (≈ 0.323 µM) | 1 (≈ 0.646 µM) | 128 (≈ 82.7 µM) | 128 (≈ 82.7 µM) | > 128 | > 128 | > 128 | > 128 | > 128 | > 128 | 0.25 (≈ 0.162 µM)
CCCCCCCNC1(C)CC(OC2C(Oc3c4cc5cc3Oc3ccc(cc3Cl)C(O)C(NC(=O)C(CC(C)C)N(C)CCCCCCC)C(=O)NC(CC(N)=O)C(=O)NC5C(=O)NC3C(=O)NC(C(=O)NC(C(=O)O)c5cc(O)cc(O)c5-c5cc3ccc5O)C(O)c3ccc(c(Cl)c3)O4)OC(CO)C(O)C2O)OC(C)C1O (stereo not drawn) [Compound 12, N^van, N^leu --di(n-heptyl)vancomycin] | 1 (≈ 0.608 µM) | 1 (≈ 0.608 µM) | 1 (≈ 0.608 µM) | 2 (≈ 1.22 µM) | 1 (≈ 0.608 µM) | 0.5 (≈ 0.304 µM) | 0.5 (≈ 0.304 µM) | 1 (≈ 0.608 µM) | 1 (≈ 0.608 µM) | > 128 | 128 (≈ 77.8 µM) | > 128 | > 128 | > 128 | > 128 | > 128 | > 128 | 0.5 (≈ 0.304 µM)
CCCCCCNC1(C)CC(OC2C(Oc3c4cc5cc3Oc3ccc(cc3Cl)C(O)C3NC(=O)C(NC(=O)C5NC(=O)C(CC(N)=O)NC(=O)C(NC(=O)C(CC(C)C)NC)C(O)c5ccc(c(Cl)c5)O4)c4ccc(O)c(c4)-c4c(O)cc(O)cc4C(C(=O)O)NC3=O)OC(CO)C(O)C2O)OC(C)C1O (stereo not drawn) [Compound 13, N^van --(n-hexyl)vancomycin] | 1 (≈ 0.652 µM) | 1 (≈ 0.652 µM) | 0.5 (≈ 0.326 µM) | 2 (≈ 1.3 µM) | 1 (≈ 0.652 µM) | 0.5 (≈ 0.326 µM) | 0.125 (≈ 0.0815 µM) | 1 (≈ 0.652 µM) | 1 (≈ 0.652 µM) | 128 (≈ 83.5 µM) | 128 (≈ 83.5 µM) | > 128 | > 128 | > 128 | > 128 | > 128 | > 128 | 0.5 (≈ 0.326 µM)
CCCCCNC1(C)CC(OC2C(Oc3c4cc5cc3Oc3ccc(cc3Cl)C(O)C3NC(=O)C(NC(=O)C5NC(=O)C(CC(N)=O)NC(=O)C(NC(=O)C(CC(C)C)NC)C(O)c5ccc(c(Cl)c5)O4)c4ccc(O)c(c4)-c4c(O)cc(O)cc4C(C(=O)O)NC3=O)OC(CO)C(O)C2O)OC(C)C1O (stereo not drawn) [Compound 15, N^van --(n-pentyl)vancomycin] | 1 (≈ 0.658 µM) | 1 (≈ 0.658 µM) | 1 (≈ 0.658 µM) | 2 (≈ 1.32 µM) | 1 (≈ 0.658 µM) | 0.5 (≈ 0.329 µM) | 0.125 (≈ 0.0823 µM) | 1 (≈ 0.658 µM) | 2 (≈ 1.32 µM) | 128 (≈ 84.2 µM) | 128 (≈ 84.2 µM) | > 128 | > 128 | > 128 | > 128 | > 128 | > 128 | 0.5 (≈ 0.329 µM)
CCCCNC1(C)CC(OC2C(Oc3c4cc5cc3Oc3ccc(cc3Cl)C(O)C3NC(=O)C(NC(=O)C5NC(=O)C(CC(N)=O)NC(=O)C(NC(=O)C(CC(C)C)NC)C(O)c5ccc(c(Cl)c5)O4)c4ccc(O)c(c4)-c4c(O)cc(O)cc4C(C(=O)O)NC3=O)OC(CO)C(O)C2O)OC(C)C1O (stereo not drawn) [Compound 17, N^van --(n-butyl)vancomycin] | 1 (≈ 0.664 µM) | 1 (≈ 0.664 µM) | 1 (≈ 0.664 µM) | 4 (≈ 2.66 µM) | 2 (≈ 1.33 µM) | 1 (≈ 0.664 µM) | 0.5 (≈ 0.332 µM) | 2 (≈ 1.33 µM) | 4 (≈ 2.66 µM) | 128 (≈ 85 µM) | 128 (≈ 85 µM) | > 128 | > 128 | > 128 | > 128 | > 128 | > 128 | 1 (≈ 0.664 µM)
CCCCNC1(C)CC(OC2C(Oc3c4cc5cc3Oc3ccc(cc3Cl)C(O)C(NC(=O)C(CC(C)C)N(C)CCCC)C(=O)NC(CC(N)=O)C(=O)NC5C(=O)NC3C(=O)NC(C(=O)NC(C(=O)O)c5cc(O)cc(O)c5-c5cc3ccc5O)C(O)c3ccc(c(Cl)c3)O4)OC(CO)C(O)C2O)OC(C)C1O (stereo not drawn) [Compound 19, N^van, N^leu --di(n-butyl)vancomycin] | 1 (≈ 0.64 µM) | 1 (≈ 0.64 µM) | 1 (≈ 0.64 µM) | 2 (≈ 1.28 µM) | 1 (≈ 0.64 µM) | 0.5 (≈ 0.32 µM) | 0.5 (≈ 0.32 µM) | 1 (≈ 0.64 µM) | 2 (≈ 1.28 µM) | > 128 | 128 (≈ 82 µM) | > 128 | > 128 | > 128 | > 128 | > 128 | > 128 | 0.5 (≈ 0.32 µM)
